Target mRNA inhibition data for 32 sequences are collected here from the OligoGym collection.

The target in this series is HSD17B13. As to conditions: ASO, HepaRG.

After the bases stand the sugars from the 5' end (letter, count) and the backbone: PS all phosphorothioate, else s phosphorothioate and o phosphodiester by linkage. Methylation of C is not given here. e = 2'-O-(2-methoxyethyl) (MOE); k = constrained ethyl (cEt); d = 2'-deoxy (DNA); m = 2'-O-methyl

For “ATCTATCAGACTTCTT (sugars k3 d1 m1 d8 k3, PS)”, where the note is “1 µM”, the target mRNA inhibition is 34%.

Where the note is “1 µM”, “TAAGCAGAATTGTGAA (sugars k3 d9 k3 e1, PS)” returned a target mRNA inhibition of 52%.

Consider TAAGGATCATTGCAGA (sugars k3 d10 k3, PS), for which, for the setting “1 µM”, the target mRNA inhibition is 0%.

As for TAAACTAAAGTACTTG (sugars k3 d10 k3, PS), the target mRNA inhibition (1 µM) was 1%.

TAGAGAGCATAAGTTA (sugars k3 d10 k3, PS) came in with a target mRNA inhibition (1 µM) of 59%.

Consider TTTCTTATTGGTAAGT (sugars k3 d10 k3, PS), for which the target mRNA inhibition (1 µM) turned out to be 44%.

For ACAGACTAAGGGACCA (sugars k3 d10 k3, PS), the target mRNA inhibition (1 µM) was 68%.

The sequence TAGCTAATGTATGAGG (sugars k3 d10 k3, PS) came in with a target mRNA inhibition (1 µM) of 48%.

As to “GTCTACCTCTAAGTTA (sugars k3 d1 m1 d8 k3, PS)”, the target mRNA inhibition (1 µM) worked out at 15%.

For the setting “1 µM”, ATCTTAAGGATCATTG (sugars k3 d10 k3, PS) gave a target mRNA inhibition of 7%.

The sequence CCAAGTAATTACTTCT (sugars k3 d10 k3, PS) came in with a target mRNA inhibition (1 µM) of 68%.

As to CCTTTAGTTAGAATAG (sugars k3 d10 k3, PS), the target mRNA inhibition (1 µM) was 37%.

Regarding GTGCAAGATGATGACA (sugars k3 d10 k3, PS), for the setting “1 µM”, the target mRNA inhibition came out at 19%.

Under “1 µM”, “TGTCCAGGTTGAGATA (sugars k3 d9 k3 e1, PS)” yielded a target mRNA inhibition of 45%.

Consider GGATCTAGAACACTTG (sugars k3 d10 k3, PS), for which, for the setting “1 µM”, the target mRNA inhibition stood at 32%.

In the case of ATTATACTTTTCCGTC (sugars k3 d10 k3, PS), the target mRNA inhibition reads like this: (0.02 µM) 12%; (0.078 µM) 0%; (0.313 µM) 47%; (1 µM) 75%; (1.25 µM) 75%; (5 µM) 84%.

Sequence CTGTATTAAGACAGTT (sugars k3 d10 k3, PS) yielded a target mRNA inhibition (1 µM) of 41%.

AGAATAGTCTTCAGCA (sugars k3 d10 k3, PS): the target mRNA inhibition (1 µM) amounted to 80%.

Take ATTGGAATGCTACTTG (sugars k3 d10 k3, PS): under “1 µM”, the target mRNA inhibition was 53%.

As to GCATTAGATGGTAAGG (sugars k3 d10 k3, PS), the target mRNA inhibition (1 µM) was 64%.

For “AATTCACCTTGACTAA (sugars kkdddddddddkekek, PS)”, under “1 µM”, the target mRNA inhibition was found to be 9%.

Where the note is “1 µM”, TAATTCTAAACTAGTG (sugars k3 d10 k3, PS) had a target mRNA inhibition of 11%.

TTAGTCTTGATGTAGT (sugars k3 d10 k3, PS): the target mRNA inhibition (1 µM) was found to be 61%.

As for GTAGTGTAAGCTGAGA (sugars k3 d10 k3, PS), for the setting “1 µM”, the target mRNA inhibition worked out at 81%.

ACCTATGGTCTAACAC (sugars k3 d10 k3, PS): where the note is “1 µM”, the target mRNA inhibition was determined as 14%.

Consider “ACATTGCAGTTATTAG (sugars kkdddddddddkekek, PS)”, for which the target mRNA inhibition (1 µM) is 46%.

As to AAAATCGCTGCTTAGT (sugars k3 d10 k3, PS), the target mRNA inhibition (1 µM) was 35%.

Under “1 µM”, GCTCCATAATAATAGC (sugars k3 d10 k3, PS) displayed a target mRNA inhibition of 21%.

In the case of ACAGTTTAGATTGCAT (sugars k3 d10 k3, PS), the target mRNA inhibition is, setting by setting: (0.02 µM) 12%; (0.078 µM) 0%; (0.313 µM) 73%; (1 µM) 84%; (1.25 µM) 73%; (5 µM) 97%.

Sequence “CTTGATGTAGTGGGAG (sugars kkdddddddddkekek, PS)” displayed a target mRNA inhibition (1 µM) of 20%.

“TGCTGCATTAATGCCA (sugars k3 d1 m1 d8 k3, PS)” came in with a target mRNA inhibition (1 µM) of 32%.

Sequence TATAACTGGAAGGAGG (sugars k3 d10 k3, PS) had a target mRNA inhibition (1 µM) of 44%.
